From ChEMBL document CHEMBL5120960, “Unveiling the Structure-Activity Relationships at the Orthosteric Binding Site of P2X Ion Channels: The Route to Selectivity” (J Med Chem, 2022)

Experiments:
Type in all cases: cell-based
[1] = target: T1, P2X purinoceptor 7 (Homo sapiens, UniProt Q99572); assay: […] activity at human P2X7R expressing HEK293 cells assessed as reduction in intracellular Ca2+ influx pretreated with Fluo-4 for 1 hr followed by compound addition and further incubated for 30 mins in presence of ATP by multimode plate reader analysis
T1 sequence (Q99572 whole entry): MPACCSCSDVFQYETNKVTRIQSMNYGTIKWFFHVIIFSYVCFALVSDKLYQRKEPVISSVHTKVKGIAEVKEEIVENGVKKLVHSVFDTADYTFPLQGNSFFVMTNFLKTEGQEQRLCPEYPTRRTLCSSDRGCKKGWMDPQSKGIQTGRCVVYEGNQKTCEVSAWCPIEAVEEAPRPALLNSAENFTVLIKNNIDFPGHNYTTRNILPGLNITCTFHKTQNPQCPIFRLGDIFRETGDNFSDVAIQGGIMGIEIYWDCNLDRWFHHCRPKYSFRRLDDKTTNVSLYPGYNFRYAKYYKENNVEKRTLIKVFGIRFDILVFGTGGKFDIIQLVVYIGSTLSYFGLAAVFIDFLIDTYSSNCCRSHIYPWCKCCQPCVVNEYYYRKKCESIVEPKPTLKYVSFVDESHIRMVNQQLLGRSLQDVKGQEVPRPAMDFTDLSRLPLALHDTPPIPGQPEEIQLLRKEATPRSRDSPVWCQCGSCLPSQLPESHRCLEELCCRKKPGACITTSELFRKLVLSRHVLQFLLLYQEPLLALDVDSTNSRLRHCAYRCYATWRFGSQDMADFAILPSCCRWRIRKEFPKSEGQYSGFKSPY

[2] = target: T2, P2X purinoceptor 2 (Homo sapiens, UniProt Q9UBL9); assay: […] activity at human P2X2R expressing CHO cells assessed as reduction in intracellular Ca2+ influx pretreated with Fluo-4 for 1 hr followed by compound addition and further incubated for 30 mins in presence of ATP by multimode plate reader analysis
T2 sequence (Q9UBL9 whole entry): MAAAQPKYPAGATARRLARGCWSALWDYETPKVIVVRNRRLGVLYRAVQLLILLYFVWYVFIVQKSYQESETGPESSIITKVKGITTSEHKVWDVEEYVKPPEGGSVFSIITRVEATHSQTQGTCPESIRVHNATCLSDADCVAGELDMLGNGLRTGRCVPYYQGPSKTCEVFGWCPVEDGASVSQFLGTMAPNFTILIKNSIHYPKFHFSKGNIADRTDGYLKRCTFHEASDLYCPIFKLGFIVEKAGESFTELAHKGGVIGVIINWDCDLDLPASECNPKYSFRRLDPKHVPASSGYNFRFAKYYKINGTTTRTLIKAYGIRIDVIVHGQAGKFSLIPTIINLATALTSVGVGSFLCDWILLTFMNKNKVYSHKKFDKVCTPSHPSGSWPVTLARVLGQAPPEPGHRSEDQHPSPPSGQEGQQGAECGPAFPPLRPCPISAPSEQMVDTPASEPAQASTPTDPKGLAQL

[3] = target: T3, P2X2/P2X3 heterotrimeric receptor (Homo sapiens, UniProt P56373+Q9UBL9); assay: […] activity at human P2X2R/P2X3R expressing CHO cells assessed as reduction in intracellular Ca2+ influx pretreated with Fluo-4 for 1 hr followed by compound addition and further incubated for 30 mins in presence of ATP by multimode plate reader analysis
T3 sequence (Q9UBL9 whole entry): T2 sequence (Q9UBL9 whole entry)
T3 sequence (P56373 whole entry): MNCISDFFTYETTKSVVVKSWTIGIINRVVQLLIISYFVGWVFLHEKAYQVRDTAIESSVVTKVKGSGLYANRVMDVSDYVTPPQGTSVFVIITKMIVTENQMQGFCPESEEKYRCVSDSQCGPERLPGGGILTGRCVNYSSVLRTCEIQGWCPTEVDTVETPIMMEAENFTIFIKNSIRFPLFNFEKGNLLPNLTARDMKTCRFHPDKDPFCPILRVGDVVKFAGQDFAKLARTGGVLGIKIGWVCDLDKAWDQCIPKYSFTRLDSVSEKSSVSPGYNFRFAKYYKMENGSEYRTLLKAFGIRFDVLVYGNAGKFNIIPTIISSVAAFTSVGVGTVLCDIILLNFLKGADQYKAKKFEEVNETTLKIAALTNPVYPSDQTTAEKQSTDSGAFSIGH

[4] = target: T4, P2X purinoceptor 1 (Homo sapiens, UniProt P51575); assay: […] activity at human P2X1R expressing CHO cells assessed as reduction in intracellular Ca2+ influx pretreated with Fluo-4 for 1 hr followed by compound addition and further incubated for 30 mins in presence of ATP by multimode plate reader analysis
T4 sequence (P51575 whole entry): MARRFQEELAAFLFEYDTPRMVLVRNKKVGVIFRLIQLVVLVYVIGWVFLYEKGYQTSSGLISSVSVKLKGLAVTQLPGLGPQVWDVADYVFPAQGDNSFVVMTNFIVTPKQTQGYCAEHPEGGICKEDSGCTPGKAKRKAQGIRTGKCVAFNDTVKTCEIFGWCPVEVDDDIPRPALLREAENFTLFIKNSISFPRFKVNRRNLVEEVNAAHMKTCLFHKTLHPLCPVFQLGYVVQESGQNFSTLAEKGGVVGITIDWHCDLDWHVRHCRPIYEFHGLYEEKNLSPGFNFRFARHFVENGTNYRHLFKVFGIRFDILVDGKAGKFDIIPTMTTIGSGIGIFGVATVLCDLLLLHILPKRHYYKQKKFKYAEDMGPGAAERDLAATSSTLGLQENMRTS

[5] = target: T1, P2X purinoceptor 7; assay: […] activity at human P2X7R expressed in HEK293 cells assessed as reduction in YO-PRO-1 iodide dye uptake preincubated for 30 mins followed by YO-PRO-1 iodide addition and measured after 2 hrs by fluorescence based multimode plate reader analysis
[6] = target: T5, P2X purinoceptor 3 (Homo sapiens, UniProt P56373); assay: […] activity at human P2X3R expressing CHO cells assessed as reduction in intracellular Ca2+ influx pretreated with Fluo-4 for 1 hr followed by compound addition and further incubated for 30 mins in presence of ATP by multimode plate reader analysis
T5 sequence (P56373 whole entry): T3 sequence (P56373 whole entry)

[7] = target: T6, P2X purinoceptor 4 (Homo sapiens, UniProt Q99571); assay: […] activity at human P2X4R expressing HEK293 cells assessed as reduction in intracellular Ca2+ influx pretreated with Fluo-4 for 1 hr followed by compound addition and further incubated for 30 mins in presence of ATP by multimode plate reader analysis
T6 sequence (Q99571 whole entry): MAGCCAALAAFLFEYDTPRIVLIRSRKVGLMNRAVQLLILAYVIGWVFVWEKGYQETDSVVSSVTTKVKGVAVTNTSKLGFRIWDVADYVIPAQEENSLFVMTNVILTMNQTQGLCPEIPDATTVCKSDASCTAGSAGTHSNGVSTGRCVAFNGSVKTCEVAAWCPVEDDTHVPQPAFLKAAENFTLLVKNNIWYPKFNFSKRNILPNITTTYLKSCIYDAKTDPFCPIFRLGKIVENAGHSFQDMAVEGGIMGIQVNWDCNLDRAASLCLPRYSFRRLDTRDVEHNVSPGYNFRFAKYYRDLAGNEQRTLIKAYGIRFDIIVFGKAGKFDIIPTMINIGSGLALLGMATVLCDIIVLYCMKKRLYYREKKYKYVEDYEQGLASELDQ

Structure (SMILES) | IC50 [1] | IC50 [2] | IC50 [3] | IC50 [4] | IC50 [5] | IC50 [6] | IC50 [7]
O=P(O)(O)OP(=O)(O)OP(=O)(O)OC[C@H]1O[C@@H](n2cnc3c(Cl)ncnc32)[C@H](O)[C@@H]1O | > 100 µM | 0.0871 µM | 0.129 µM | 0.00355 µM | > 100 µM | 0.741 µM | > 100 µM
CNc1ncnc2c1ncn2[C@@H]1O[C@H](COP(=O)(O)OP(=O)(O)OP(=O)(O)O)[C@@H](O)[C@H]1O | > 100 µM | > 100 µM | 0.263 µM | > 100 µM | > 100 µM | 1.29 µM | > 100 µM
CO[C@@H]1[C@H](O)[C@@H](COP(=O)(O)OP(=O)(O)OP(=O)(O)O)O[C@H]1n1cnc2c(N)ncnc21 | > 100 µM | > 100 µM | > 100 µM | > 100 µM | > 100 µM | > 100 µM | > 100 µM
Nc1ncnc2c1ncn2[C@@H]1O[C@H](COP(=O)(O)OP(=O)(O)OP(=O)(O)O)[C@@H](O)[C@@H]1O | > 100 µM | > 100 µM | > 100 µM | > 100 µM | > 100 µM | > 100 µM | 10.5 µM
[N-]=[N+]=Nc1nc2c(N)ncnc2n1[C@@H]1O[C@H](COP(=O)(O)OP(=O)(O)OP(=O)(O)O)[C@@H](O)[C@H]1O | > 100 µM | > 100 µM | > 100 µM | > 100 µM | > 100 µM | > 100 µM | > 100 µM
Nc1ncnc2c1ncn2[C@@H]1O[C@H](COP(=O)(O)OP(=O)(O)OP(=O)(O)O)[C@@H](O)[C@H]1F | > 100 µM | 5.62 µM | 5.37 µM | > 100 µM | > 100 µM | 10.5 µM | 2.75 µM
Nc1ncnc2c1ncn2[C@@H]1O[C@H](COP(=O)(O)OP(=O)(O)OP(=O)(O)O)[C@@H](O)[C@H]1N | > 100 µM | > 100 µM | 0.363 µM | 6.46 µM | > 100 µM | 4.27 µM | > 100 µM
